Reference: patent publication US20120093726A1, “Radiolabeled Fluorine Derivatives of Methionine” (priority 2009, published 2012)

Experiments:
[1] = system: MiaPaCa2 human pancreatic carcinoma cell line; experiment: Cell uptake study, MiaPaCa2; type: cell-based; settings: MiaPaCa2 tumour cell line
Experimental: (§1) The human A375 (malignant melanoma), A431 (epidermoid carcinoma), HT29 (colorectal adenocarcinoma), MCF-7 (breast adenocarcinoma), MDA-MB-231 (breast adenocarcinoma), PC-3 (prostate adenocarcinoma) tumour cells were grown in RPMI-1640 medium supplemented with 10% fetal bovine serum (FBS) and 2 mM L-glutamine. The human H460 (large cell lung carcinoma) cell line was grown in RPMI-1640 supplemented with 10% FBS, 1 mM L-glutamine and 1 mM sodium pyruvate. The MiaPaCa2 human pancreatic carcinoma cell line was grown in Dulbecco's Modified Eagle medium supplemented with 10% FBS, 2.5% horse serum, 1 mM L-glutamine and 1 mM sodium pyruvate. The human U87MG glioblastoma cell line was cultured in Minimum Essential Medium supplemented with 10% FBS, 2 mM L-glutamine and 1 mM sodium pyruvate. Cells were maintained in 175 cm^2 flasks in a 5% CO2, 37° C. humidified incubator. Cells were passaged routinely every 7 days and the media changed twice weekly. […]
(§2) On the day of the study, the cells were counted and the viability assessed in triplicate for each cell line. […] After stopping the tracer uptake with 1 mL of ice-cold PBS, cells were solubilised with 500 μL of 0.2N NaOH and the activity was measured with a gamma counter. The results were expressed as percent of applied dose per 1×10^5 cells.

[2] = system: various types of tumour cells; experiment: Cell uptake study, panel of tumour cell lines; type: cell-based, human; settings: for uptake into tumour cells: particularly MCF-7, U87MG, MiaPaCa2 and A375 cell lines
Experimental: (§3) The human A375 (malignant melanoma), A431 (epidermoid carcinoma), HT29 (colorectal adenocarcinoma), MCF-7 (breast adenocarcinoma), MDA-MB-231 (breast adenocarcinoma), PC-3 (prostate adenocarcinoma) tumour cells were grown in RPMI-1640 medium supplemented with 10% fetal bovine serum (FBS) and 2 mM L-glutamine. The human H460 (large cell lung carcinoma) cell line was grown in RPMI-1640 supplemented with 10% FBS, 1 mM L-glutamine and 1 mM sodium pyruvate. The MiaPaCa2 human pancreatic carcinoma cell line was grown in Dulbecco's Modified Eagle medium supplemented with 10% FBS, 2.5% horse serum, 1 mM L-glutamine and 1 mM sodium pyruvate. The human U87MG glioblastoma cell line was cultured in Minimum Essential Medium supplemented with 10% FBS, 2 mM L-glutamine and 1 mM sodium pyruvate. Cells were maintained in 175 cm^2 flasks in a 5% CO2, 37° C. humidified incubator. Cells were passaged routinely every 7 days and the media changed twice weekly.
(§4) One day prior to the experiments, cell cultures were trypsinised with a solution of 0.05% trypsin in PBS without Ca^2+ and Mg^2+ and containing 0.02% EDTA. Cells were seeded in 24-well culture dishes in complete medium and left to attach overnight. For MCF-7 cells, 3×10^5 cells were seeded, for all other cell lines, 2.5×10^5 cells were seeded.
(§5) On the day of the study, the cells were counted and the viability assessed in triplicate for each cell line. Before the incubation with radiolabelled FPM, cells were washed once with PBS containing Ca^2+ and Mg^2+ to remove all traces of the culture medium. The radiolabelled FPM was formulated in PBS containing Ca^2+ and Mg^2+. Aliquots of 500 μL (˜10 μCi) of freshly prepared FPM were added and the cells were incubated in triplicate at 37° C. for 2, 15, 30, 60, 120, 180 and 240 min. After stopping the tracer uptake with 1 mL of ice-cold PBS, cells were solubilised with 500 μL of 0.2N NaOH and the activity was measured with a gamma counter. The results were expressed as percent of applied dose per 1×10^5 cells.

[3] = system: HT-29 colon carcinoma xenografts; experiment: PET imaging of tracer uptake in HT29 tumoured mice; type: in vivo, Balb/c Nude mice; settings: intravenous, PET at 90 minutes post-tracer injection
Experimental: (§6) In vivo imaging studies were performed on a Phillips Allegro™ small animal imaging system in mice implanted with A431 squamous cell carcinoma and HT-29 colon carcinoma xenografts on the left leg of Balb/c Nude mice. Approximately 400 μCi of each of D and L ^18FPM in 100 μl saline were injected intravenously and PET imaging performed at 90 minutes post-tracer injection. A comparison with FDG (fluorodeoxyglucose) uptake was also performed.

MiaPaCa2 cells = experiment: Competitive inhibition study of tracer uptake, MiaPaCa2; type: cell-based, human; settings: MeAIB 12.5 mmol/L aliquot, 30 min, 37° C.
Experimental: as §1
as §2, with “cells. The percentage of uptake in the treatment groups, relative to the control group was determined.” for “cells.”

[4] = system: A431 squamous cell carcinoma xenografts; experiment: PET imaging of tracer uptake in A431 tumoured mice; type: in vivo, Balb/c Nude mice; settings: intravenous, PET at 90 minutes post-tracer injection
Experimental: as §6

HT29 cells = experiment: Competitive inhibition study of tracer uptake, HT29; type: cell-based, human; settings: MeAIB 12.5 mmol/L aliquot, 30 min, 37° C.
Experimental: as §1
as §2, with “cells. The percentage of uptake in the treatment groups, relative to the control group was determined.” for “cells.”

H460 cells = experiment: Competitive inhibition study of tracer uptake, H460; type: cell-based, human; settings: MeAIB 12.5 mmol/L aliquot, 30 min, 37° C.
Experimental: as §1
as §2, with “cells. The percentage of uptake in the treatment groups, relative to the control group was determined.” for “cells.”

[5] = system: HT29 (colorectal adenocarcinoma) tumour cells; experiment: Cell uptake study, HT29; type: cell-based, human; settings: HT29 colon cell line
Experimental: as §1, §2

[6] = system: MCF-7 (breast adenocarcinoma) tumour cells; experiment: Cell uptake study, MCF-7; type: cell-based, human; settings: for uptake, rank among the cell lines: MCF-7 breast tumour cell line, 37° C., 2-240 min; for time for which uptake increased before staying at the same level: MCF-7 cell line
Experimental: as §3, §4, §5

[7] = system: sodium-independent L type transport system in tumour cell lines; experiment: Competitive inhibition study of tracer uptake, all cell lines; type: cell-based, human; settings: for tracer uptake in the presence of BCH: all cell lines, BCH 12.5 mmol/L aliquot, 30 min, 37° C.; for transport mechanism of cell uptake: from inhibition by BCH and MeAIB
Experimental: as §3, §4
Inhibitor studies were carried out to investigate the transport mechanism involved in the uptake of FPM in tumour cells. The following amino acid transport inhibitors were used; 2-amino-bicyclo[2.2.1]-heptane-2-carboxylic acid (BCH) and N-methyl-α-aminoisobutyric acid (MeAIB) for the sodium-independent L type transport system and the A type amino acid transport system respectively.
On the day of the study, the cells were counted and the viability assessed in triplicate for each cell line. Before the incubation with radiolabelled FPM, cells were washed once with PBS containing Ca^2+ and Mg^2+ to remove all traces of the culture medium. Aliquots of 400 μL of inhibitor (12.5 mmol/L in PBS with Ca^2+ and Mg^2+) or PBS (for controls) were added to cells prior to the addition of radiolabelled FPM. Aliquots of 100 μL (about 10 μCi) of freshly prepared FPM were added and the cells were incubated in triplicate at 37° C. for 30 min. After stopping the tracer uptake with 1 mL of ice-cold PBS, cells were solubilised with 500 μL of 0.2N NaOH and the activity was measured with a gamma counter. The results were expressed as percent of applied dose per 1×10^5 cells. The percentage of uptake in the treatment groups, relative to the control group was determined.

[8] = Radiochemical purity and stability in aqueous formulations (HPLC); type: physicochemical
Experimental: The stability of [^18F]-L-FPHCys and [^18F]-D-FPHCys formulated in each of the following solutions: • 1) 5% EtOH/95% phosphate buffer, pH 6, 0.15 M (HLPC solvent) • 2) saline • 3) Dulbecco's phosphate buffered saline, pH 7 • 4) Phosphate buffer, pH 7. were analysed by HPLC using a Gemini 150×4.6 mm, 5 μm, eluting with 100% Phosphate Buffer, pH 11.5, 0.05 M at 1 mL/min, λ=226 nm.

[9] = cited from earlier work

| Compound | time of peak uptake [1] | uptake into tumour cells [2] | percent injected dose (% ID) in tumour [3] [%] | tumour to background ratio [3] | percent injected dose (% ID) in tumour [4] [%] | tumour to background ratio [4] | tracer uptake in the presence of MeAIB, % of control uptake (H460 cells) [%] | uptake, rank among the cell lines [5] | uptake, rank among the cell lines [6] | time for which uptake increased before staying at the same level [6] [min] | tracer uptake in the presence of BCH [7] | transport mechanism of cell uptake [7] | other results |
| --- | --- | --- | --- | --- | --- | --- | --- | --- | --- | --- | --- | --- | --- |
| N[C@@H](CCSCCC[18F])C(=O)O [[^18F]-L-FPHCys, S-(3-[^18F]fluoropropyl)-L-homocysteine] | 30 | high uptake | 2.13 | 2.45 | 2.12 | 5.39 | 70 | lowest uptake | highest | 120 | significantly inhibited | predominantly taken up by cells via the sodium-independent L type transport system | uptake compared with the other enantiomer ([2]; all cell lines): higher; tracer uptake in the presence of MeAIB, % of control uptake (MiaPaCa2 cells): 79%; tracer uptake in the presence of MeAIB, % of control uptake (HT29 cells): 84% |
| N[C@@H](CCSCCC[18F])C(=O)O [[^18F]FPHCys, S-(3-[^18F]fluoropropyl)homocysteine] | – | – | – | – | – | – | – | – | – | – | – | – | stability in an aqueous environment compared with the S-ethyl homologue ([8]; aqueous environment): substantially more stable |
| N[C@@H](CCSCC[18F])C(=O)O [[^18F]FEHCys, S-(2-[^18F]fluoroethyl)-L-homocysteine] | – | – | – | – | – | – | – | – | – | – | – | – | stability in aqueous systems [9]: considerable instability |
| OC[C@H]1OC(O)[C@H]([18F])[C@@H](O)[C@@H]1O (stereo partly drawn) [FDG, [^18F]Fluoro-2-deoxy-D-glucose, reference compound] | – | – | 2.37 | 2.11 | 5.84 | 3.33 | – | – | – | – | – | – | – |
| S-(3-[^18F]fluoropropyl)-D-homocysteine [[^18F]-D-FPHCys] | 30 min | high uptake | 0.75 | 2.10 | 1.96 | 7.86 | 76 | lowest uptake | highest | 120 | significantly inhibited | predominantly taken up by cells via the sodium-independent L type transport system | % ROI of product peak, F18 chromatogram (radiochemical purity) ([8]; 5% EtOH/95% phosphate buffer, pH 6, 0.15 M (HPLC solvent), t=0): 99.74%; % ROI of product peak, F18 chromatogram (radiochemical purity) ([8]; 5% EtOH/95% phosphate buffer, pH 6, 0.15 M (HPLC solvent), t=4 h): 99.06%; % ROI of product peak, F18 chromatogram (radiochemical purity) ([8]; Dulbecco's phosphate buffered saline, pH 7, t=0): 98.97%; % ROI of product peak, F18 chromatogram (radiochemical purity) ([8]; Dulbecco's phosphate buffered saline, pH 7, t=4 h): 96.20%; % ROI of product peak, F18 chromatogram (radiochemical purity) ([8]; PBS (phosphate buffer, pH 7), t=0): 98.44%; % ROI of product peak, F18 chromatogram (radiochemical purity) ([8]; PBS (phosphate buffer, pH 7), t=4 h): 96.51%; % ROI of product peak, F18 chromatogram (radiochemical purity) ([8]; saline, t=0): 99.30%; % ROI of product peak, F18 chromatogram (radiochemical purity) ([8]; saline, t=4 h): 95.23% |
